In EP0633316A1, “Lys-aminopeptidase PepN from lactobacillus delbruckii ssp. Lactis, nucleic acids coding for it, and its use in fermentation processes” (EUROPEAN ECONOMIC COMMUNITY E.E.C., priority 1993, dated 1995):
Where two headings read alike, the source gives them in different places. Non-standard residues stand in square brackets, D forms with d. Residues, ends and D or L forms follow the SMILES beside them. *: point of attachment. Sta = CC(C)C[C@H](N)[C@@H](O)CC(=O)O; pNA = O=[N+]([O-])c1ccc(N*)cc1; Isovaleryl = CC(C)CC(=O)*

How the values were obtained:
Type in all cases: biochemical, Lactobacillus delbrückii ssp. lactis
[1] = target: T1, PepN (Lactobacillus delbrueckii subsp. lactis, UniProt P37896); assay: Substrate specificity of purified PepN against p-nitroanilide substrates; settings: p-nitroanilide substrates 1 mM, 10 min at 37°C, Tris-HCl 10 mM pH 8.0
T1 construct: made in house; host or cells: E. coli CM89 (pepN-deficient) harbouring plasmid pUK13
T1 sequence (P37896 1-843): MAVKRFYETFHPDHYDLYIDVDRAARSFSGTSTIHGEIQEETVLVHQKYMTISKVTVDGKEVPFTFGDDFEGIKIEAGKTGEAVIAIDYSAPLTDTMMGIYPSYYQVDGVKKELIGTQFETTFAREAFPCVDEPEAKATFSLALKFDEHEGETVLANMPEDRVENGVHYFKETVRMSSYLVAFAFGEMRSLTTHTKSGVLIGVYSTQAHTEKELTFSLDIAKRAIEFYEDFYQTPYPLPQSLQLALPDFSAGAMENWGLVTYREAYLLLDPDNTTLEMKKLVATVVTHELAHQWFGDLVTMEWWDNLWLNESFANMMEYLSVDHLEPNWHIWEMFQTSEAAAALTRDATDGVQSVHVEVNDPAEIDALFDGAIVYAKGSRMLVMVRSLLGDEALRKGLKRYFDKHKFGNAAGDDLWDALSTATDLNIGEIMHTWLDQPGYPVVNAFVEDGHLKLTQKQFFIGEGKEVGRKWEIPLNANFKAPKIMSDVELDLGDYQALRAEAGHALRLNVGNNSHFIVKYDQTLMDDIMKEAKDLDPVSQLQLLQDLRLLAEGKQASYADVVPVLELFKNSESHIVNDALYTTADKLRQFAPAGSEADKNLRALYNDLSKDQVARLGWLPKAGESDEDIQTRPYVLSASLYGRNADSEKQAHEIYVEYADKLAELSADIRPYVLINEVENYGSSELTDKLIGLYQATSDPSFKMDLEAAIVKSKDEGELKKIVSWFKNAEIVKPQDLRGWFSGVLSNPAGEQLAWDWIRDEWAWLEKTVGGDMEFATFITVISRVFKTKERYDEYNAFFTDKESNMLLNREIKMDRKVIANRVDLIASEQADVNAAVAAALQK
Experimental: (§1) For characterization of the enzyme the p-nitroanilide subtrates (Bachem) were dissolved in water and added to the reaction mixture [Tris-HCl 10 mM, pH 8.0, and varying amounts of purified enzyme (1-200 ng)] to a concentration of 1 mM in a volume of 250 µl. Release of p-nitroaniline was measured after a 10 min incubation at 37°C at […] in a LKB Ultrospec plus spectrophotometer. For rapid screening of active fractions during purification of the enzyme, samples were prepared in micro titer plates and measured in a BIORAD model 2550 EIA reader.

[2] = target: T1, PepN; assay: biochemical; settings: for activity at 1000 µM: read-out: relative activity
Experimental: The percentages of relative activity indicated above, correspond to residual activities after addition of the inhibitor as compared with the control without inhibitor. The conditions and methods for determination are taken from "Proteolytic enzymes, a practical approach, Beynon R.J. and Bond J.S., Oxford University Press 1989." (Chapter 4, Determination of protease mechanism, Ben M. Dunn).
as §1
To study the mechanism of enzyme action, the inhibitors phenylmethansulphonyl fluoride (PMSF) at a concentration of 1 mM, pepstatin A at 1 µg/ml, L-trans-epoxysuccinyl-leucylamide(4-guanidino)-butane (E-64) at 0.1 mM, and 1,10-phenanthroline or EDTA at 1 mM were added to the enzyme and incubated for 30 min at 37°C. The substrate lys-p-nitroanilide was added and activity was measured spectrophotometrically by the release of p-nitroaniline.

[3] = substrate: NCCCC[C@H](N)C(=O)Nc1ccc([N+](=O)[O-])cc1; assay: Substrate specificity of purified PepN against p-nitroanilide substrates; settings: other: Lineweaver-Burk plot; pH 8.0; 37.0 °C
Experimental: as §1

[4] = PMSF 1 mM, pepstatin A 1 µg/ml, E-64 0.1 mM, 1,10-phenanthroline or EDTA 1 mM, 30 min at 37°C, substrate lys-p-nitroanilide

Row | Molecule | relative activity (%) [1] [%] | further results
1 | C[C@H](N)C(=O)N1CCC[C@H]1C(=O)Nc1ccc([N+](=O)[O-])cc1 [Ala-Pro-pNA] (H-Ala-Pro-pNA) | 0 | –
2 | C[C@H](N)C(=O)Nc1ccc([N+](=O)[O-])cc1 [Ala-pNA] | 12 | –
3 | CC(C)CC(NC(=O)C1OC1C(=O)O)C(=O)NCCCCN=C(N)N [E-64, L-trans-epoxysuccinyl-leucylamide(4-guanidino)-butane] | – | effect on enzyme activity [2, 4]: no effect
4 | O=C(O)CN(CCN(CC(=O)O)CC(=O)O)CC(=O)O [EDTA] | – | effect on enzyme activity [2]: full inhibition; activity at 1000 µM [2]: 3%
5 | NCC(=O)Nc1ccc([N+](=O)[O-])cc1 [Gly-pNA] | 1 | –
6 | CC(C)C[C@H](N)C(=O)Nc1ccc([N+](=O)[O-])cc1 [Leu-pNA] | 19 | –
7 | NCCCC[C@H](N)C(=O)Nc1ccc([N+](=O)[O-])cc1 [Lys-pNA, lys-p-nitroanilide] | 100 | –
8 | O=S(=O)(F)Cc1ccccc1 [PMSF, phenylmethansulphonyl fluoride] | – | effect on enzyme activity [2, 4]: no effect
9 | CC(C)CC(=O)N[C@H](C(=O)N[C@H](C(=O)N[C@@H](CC(C)C)[C@@H](O)CC(=O)N[C@@H](C)C(=O)N[C@@H](CC(C)C)[C@@H](O)CC(=O)O)C(C)C)C(C)C [Pepstatin A, pepstatin A] (Isovaleryl-VV[Sta]A[Sta]-OH) | – | effect on enzyme activity [2, 4]: no effect
10 | N[C@@H](Cc1ccccc1)C(=O)Nc1ccc([N+](=O)[O-])cc1 [Phe-pNA] | 8 | –
11 | c1cnc2c(c1)ccc1cccnc12 [Phenanthroline, 1,10-phenanthroline] | – | effect on enzyme activity [2, 4]: full inhibition; activity at 1000 µM ([2]; end concentration 1 mM, residual activity after addition of the inhibitor compared with control without inhibitor): 4%
12 | O=C(Nc1ccc([N+](=O)[O-])cc1)[C@@H]1CCCN1 [Pro-pNA] | 2 | –
13 | N[C@@H](Cc1ccc(O)cc1)C(=O)Nc1ccc([N+](=O)[O-])cc1 [Tyr-pNA] | 2 | –
14 | PepN (Lactobacillus delbrueckii subsp. lactis) (protein, made in house; host or cells: E. coli CM89 (pepN-deficient) harbouring plasmid pUK13) MAVKRFYETFHPDHYDLYIDVDRAARSFSGTSTIHGEIQEETVLVHQKYMTISKVTVDGKEVPFTFGDDFEGIKIEAGKTGEAVIAIDYSAPLTDTMMGIYPSYYQVDGVKKELIGTQFETTFAREAFPCVDEPEAKATFSLALKFDEHEGETVLANMPEDRVENGVHYFKETVRMSSYLVAFAFGEMRSLTTHTKSGVLIGVYSTQAHTEKELTFSLDIAKRAIEFYEDFYQTPYPLPQSLQLALPDFSAGAMENWGLVTYREAYLLLDPDNTTLEMKKLVATVVTHELAHQWFGDLVTMEWWDNLWLNESFANMMEYLSVDHLEPNWHIWEMFQTSEAAAALTRDATDGVQSVHVEVNDPAEIDALFDGAIVYAKGSRMLVMVRSLLGDEALRKGLKRYFDKHKFGNAAGDDLWDALSTATDLNIGEIMHTWLDQPGYPVVNAFVEDGHLKLTQKQFFIGEGKEVGRKWEIPLNANFKAPKIMSDVELDLGDYQALRAEAGHALRLNVGNNSHFIVKYDQTLMDDIMKEAKDLDPVSQLQLLQDLRLLAEGKQASYADVVPVLELFKNSESHIVNDALYTTADKLRQFAPAGSEADKNLRALYNDLSKDQVARLGWLPKAGESDEDIQTRPYVLSASLYGRNADSEKQAHEIYVEYADKLAELSADIRPYVLINEVENYGSSELTDKLIGLYQATSDPSFKMDLEAAIVKSKDEGELKKIVSWFKNAEIVKPQDLRGWFSGVLSNPAGEQLAWDWIRDEWAWLEKTVGGDMEFATFITVISRVFKTKERYDEYNAFFTDKESNMLLNREIKMDRKVIANRVDLIASEQADVNAAVAAALQK | – | Km [3]: 70 µM
